Reference: patent publication US20230159509A1 (Amathus Therapeutics, Inc., priority 2020, published 2023)

Target: T1, TRAP1 enzyme (Homo sapiens, UniProt Q12931)
T1 construct: 150 nM Trap1 enzyme was incubated with various concentrations of the test compound
T1 sequence (Q12931 60-704): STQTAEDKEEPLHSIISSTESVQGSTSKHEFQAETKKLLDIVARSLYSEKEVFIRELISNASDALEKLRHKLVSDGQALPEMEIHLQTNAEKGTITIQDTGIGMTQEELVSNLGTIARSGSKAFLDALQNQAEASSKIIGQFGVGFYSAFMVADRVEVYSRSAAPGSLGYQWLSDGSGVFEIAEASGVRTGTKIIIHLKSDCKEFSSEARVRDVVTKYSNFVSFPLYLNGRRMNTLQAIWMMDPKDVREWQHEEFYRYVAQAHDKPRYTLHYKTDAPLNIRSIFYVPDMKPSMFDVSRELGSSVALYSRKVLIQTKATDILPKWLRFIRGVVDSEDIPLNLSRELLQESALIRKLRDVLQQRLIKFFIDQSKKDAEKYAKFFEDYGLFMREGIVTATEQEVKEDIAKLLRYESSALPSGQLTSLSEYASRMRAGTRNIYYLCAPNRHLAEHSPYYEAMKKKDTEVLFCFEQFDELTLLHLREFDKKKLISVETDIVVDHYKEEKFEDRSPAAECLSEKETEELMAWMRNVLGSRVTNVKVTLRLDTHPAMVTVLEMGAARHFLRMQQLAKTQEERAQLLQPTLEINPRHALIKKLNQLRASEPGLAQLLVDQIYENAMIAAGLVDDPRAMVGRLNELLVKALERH
Assay: ADP Glo assay of TRAP1 ATPase activity
Assay type: biochemical
Conditions: for EC50: concentration for half maximal activation, read-out: ADP GLO DRC: GeoMean EC50; for Emax: maximal percent activation, read-out: ADP GLO DRC: Mean Emax; for activation at 50 µM: 1 h, compound concentration 50 μM, read-out: ADP-Glo Percent Activation at 50 μM
Method in brief: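 Compound (0.79–100 μM) was preincubated 30 min at 37° C with 150 nM TRAP1 in 25 mM Pipes pH 7.5, 40 mM KCl, 0.05 mM MgCl2. Reaction started with 20 μM ATP, 60 min at 37° C. ADP measured by luminescence against a standard curve; activation fitted sigmoidally for EC50 and Emax.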

Row | EC50 [µM] | Emax [%] | activation at 50 µM [%] | SMILES
1 | 20 to 100 | 200 to 300 |  | COc1ncc(NC(=O)c2coc(-c3ccccc3)n2)cc1S(=O)(=O)Nc1nc(C(C)(C)C)ns1 [compound 2403]
2 | 10 to 20 | 119 to 159 |  | COc1ncc(NC(=O)c2csc(-c3cc(F)c(F)c(F)c3)n2)cc1S(=O)(=O)Nc1cc(C)n(C(C)C)n1 [compound 2407]
3 | < 10 | 160 to 199 |  | Cc1cccc(C)c1NS(=O)(=O)c1cc(NC(=O)c2csc(-c3ccccc3)n2)cnc1OCC(O)CO (stereo not shown) [compound 2418]
4 | < 10 | 200 to 300 |  | COc1ncc(NC(=O)c2csc(-c3ccccc3OCC(O)CO)n2)cc1S(=O)(=O)Nc1c(C)cccc1C (stereo not shown) [compound 2427]
5 | < 10 | 160 to 199 |  | COc1ncc(NC(=O)c2csc(-c3ccccc3)n2)cc1S(=O)(=O)N(CC(O)CO)c1ccc(Cl)cc1 (stereo not shown) [compound 2431]
6 | < 10 | 160 to 199 |  | COc1ncc(NC(=O)c2csc(-c3cccc(Cl)n3)n2)cc1S(=O)(=O)Nc1c(C)cccc1C [compound 2445]
7 | 10 to 20 | 160 to 199 |  | COc1ncc(NC(=O)c2coc(-c3ccccc3)n2)cc1S(=O)(=O)Nc1cccc2cnc(C)cc12 [compound 2447]
8 | < 10 | 119 to 159 |  | COc1ncc(NC(=O)c2csc(-c3cccc(OCC4COC(C)(C)O4)n3)n2)cc1S(=O)(=O)Nc1c(C)cccc1C (stereo not shown) [compound 2454]
9 | < 10 | 200 to 300 |  | COc1ncc(NC(=O)c2csc(-c3cccc(OCC(O)CO)n3)n2)cc1S(=O)(=O)Nc1c(C)cccc1C (stereo not shown) [compound 2463]
10 | < 10 | 160 to 199 |  | COc1ncc(NC(=O)c2csc(-c3cc(F)c(F)c(F)c3)n2)cc1S(=O)(=O)Nc1c(C)csc1C [compound 2466]
11 | < 10 | 160 to 199 |  | COc1ncc(NC(=O)c2ncc(-c3ccccc3)o2)cc1S(=O)(=O)Nc1c(C)cccc1C [compound 2470]
12 | 20 to 100 | 160 to 199 |  | COc1ncc(NC(=O)c2c[nH]c(C(F)(F)F)n2)cc1S(=O)(=O)Nc1c(C)cccc1C [compound 2474]
13 | 10 to 20 | 160 to 199 |  | COc1ncc(NC(=O)c2ncoc2C(C)C)cc1S(=O)(=O)Nc1ccc(Cl)cc1 [compound 2487]
14 | < 10 | 119 to 159 |  | [2H]c1c([2H])c([2H])c(C([2H])([2H])[2H])c(NS(=O)(=O)c2cc(NC(=O)c3csc(-c4ccccc4)n3)cnc2OC)c1[2H] [compound 2492]
15 | 20 to 100 | 160 to 199 |  | [2H]c1c([2H])c([2H])c(C([2H])([2H])[2H])c(NS(=O)(=O)c2cc(NC(=S)c3coc(-c4ccccc4)n3)cnc2OC)c1[2H] [compound 2493]
16 | 10 to 20 | 160 to 199 |  | COc1ncc(NC(=O)c2csc(C(C)C)n2)cc1S(=O)(=O)Nc1c(C)cccc1C [compound 2496]
17 | < 10 | 160 to 199 |  | COc1ncc(NC(=O)c2coc(-c3ccccc3)n2)cc1S(=O)(=O)Nc1c(C2CC2)cccc1C1CC1 [compound 2497]
18 | 10 to 20 | 160 to 199 |  | COc1ncc(NC(=O)c2csc(C(F)(F)F)n2)cc1S(=O)(=O)Nc1c(C)cccc1C [compound 2498]
19 | < 10 | 160 to 199 |  | COc1ncc(NC(=O)c2csc(-c3ccccc3)n2)cc1S(=O)(=O)Nc1c(C2CC2)cccc1C1CC1 [compound 2499]
20 | < 10 | 119 to 159 |  | [2H]c1c([2H])c([2H])c(-c2nc(C(=O)Nc3cnc(OC)c(S(=O)(=O)Nc4c(C)cccc4C)c3)cs2)c([2H])c1[2H] [compound 2500]

Row | EC50 [µM] | Emax [%] | activation at 50 µM [%] | SMILES
21 | 20 to 100 | 160 to 199 |  | COc1ncc(NC(=O)c2csc(C)n2)cc1S(=O)(=O)Nc1c(C)cccc1C [compound 2501]
22 | 10 to 20 | 119 to 159 |  | COc1ncc(NC(=O)c2csc(Br)n2)cc1S(=O)(=O)Nc1c(C)cccc1C [compound 2502]
23 | 20 to 100 | 200 to 300 |  | COc1ncc(NC(=O)c2csc(-c3ccccc3)n2)cc1S(=O)(=O)Nc1c(C)cccc1P(C)(C)=O [compound 2506]
24 | 10 to 20 | 119 to 159 |  | COc1ncc(NC(=O)c2ncc(-c3ccccc3)o2)cc1S(=O)(=O)Nc1nc(C(F)(F)F)ccc1C [compound 2512]
25 |  |  | 181 to 352 | COc1ncc(NC(=O)c2ccc3c(c2)CC(=O)N3)cc1S(=O)(=O)Nc1c(C)cccc1C [compound 2523]
26 |  |  | 151 to 180 | COc1ncc(NC(=O)c2c(C)noc2C)cc1S(=O)(=O)Nc1c(C)cccc1C [compound 2524]
27 |  |  | 151 to 180 | COc1ncc(NC(=O)c2cccc3c2CCC(=O)N3)cc1S(=O)(=O)Nc1c(C)cccc1C [compound 2525]
28 |  |  | 120 to 150 | COc1ncc(NC(=O)c2ccn3cnnc3c2)cc1S(=O)(=O)Nc1c(C)cccc1C [compound 2526]
29 |  |  | 181 to 352 | COc1ncc(NC(=O)c2c3c(nn2C)CCC3)cc1S(=O)(=O)Nc1c(C)cccc1C [compound 2528]
30 |  |  | 181 to 352 | COc1ncc(NC(=O)c2ccc(C#N)cc2)cc1S(=O)(=O)Nc1c(C)cccc1C [compound 2529]
31 |  |  | 120 to 150 | COc1ncc(NC(=O)c2ccc(OC(F)(F)F)cc2)cc1S(=O)(=O)Nc1c(C)cccc1C [compound 2531]
32 |  |  | 151 to 180 | COc1ncc(NC(=O)c2ccc(N3CCCC3=O)cc2)cc1S(=O)(=O)Nc1c(C)cccc1C [compound 2532]
33 |  |  | 151 to 180 | COc1ncccc1C(=O)Nc1cnc(OC)c(S(=O)(=O)Nc2c(C)cccc2C)c1 [compound 2535]
34 |  |  | 151 to 180 | COc1ncc(NC(=O)c2cccc(C(F)(F)F)c2)cc1S(=O)(=O)Nc1c(C)cccc1C [compound 2536]
35 |  |  | 120 to 150 | COc1ncc(NC(=O)c2ccc3ncnn3c2)cc1S(=O)(=O)Nc1c(C)cccc1C [compound 2537]
36 |  |  | 120 to 150 | COc1ncc(NC(=O)c2cn(C(C)C)nn2)cc1S(=O)(=O)Nc1c(C)cccc1C [compound 2538]
37 |  |  | 181 to 352 | COc1ncc(NC(=O)c2cccn2C)cc1S(=O)(=O)Nc1c(C)cccc1C [compound 2539]
38 |  |  | 120 to 150 | COc1ncc(NC(=O)c2ccc3c(c2)nnn3C)cc1S(=O)(=O)Nc1c(C)cccc1C [compound 2541]
39 |  |  | 151 to 180 | COc1ncc(NC(=O)c2ccc(F)cc2)cc1S(=O)(=O)Nc1c(C)cccc1C [compound 2542]
40 |  |  | 181 to 352 | COc1ncc(NC(=O)c2cncc(N(C)C)n2)cc1S(=O)(=O)Nc1c(C)cccc1C [compound 2543]

Row | EC50 [µM] | Emax [%] | activation at 50 µM [%] | SMILES
41 |  |  | 181 to 352 | COc1ncc(NC(=O)c2ccc(N3CCCCC3)nc2)cc1S(=O)(=O)Nc1c(C)cccc1C [compound 2544]
42 |  |  | 151 to 180 | COc1cncc(C(=O)Nc2cnc(OC)c(S(=O)(=O)Nc3c(C)cccc3C)c2)c1 [compound 2545]
43 |  |  | 120 to 150 | COc1cnccc1C(=O)Nc1cnc(OC)c(S(=O)(=O)Nc2c(C)cccc2C)c1 [compound 2546]
44 |  |  | 120 to 150 | CCN1CCN(Cc2ccccc2C(=O)Nc2cnc(OC)c(S(=O)(=O)Nc3c(C)cccc3C)c2)CC1 [compound 2547]
45 |  |  | 181 to 352 | COc1ncc(NC(=O)c2ccccc2C)cc1S(=O)(=O)Nc1c(C)cccc1C [compound 2548]
46 |  |  | 120 to 150 | COc1cccnc1C(=O)Nc1cnc(OC)c(S(=O)(=O)Nc2c(C)cccc2C)c1 [compound 2549]
47 |  |  | 151 to 180 | COc1ncc(NC(=O)c2ccccc2C(F)(F)F)cc1S(=O)(=O)Nc1c(C)cccc1C [compound 2550]
48 |  |  | 120 to 150 | COc1ncc(NC(=O)c2cn(C)nc2C(F)F)cc1S(=O)(=O)Nc1c(C)cccc1C [compound 2551]
49 |  |  | 151 to 180 | COc1ncc(NC(=O)c2cnn(C3CC3)c2)cc1S(=O)(=O)Nc1c(C)cccc1C [compound 2552]
50 |  |  | 120 to 150 | COc1ncc(NC(=O)c2ccnn2C(C)C)cc1S(=O)(=O)Nc1c(C)cccc1C [compound 2553]
51 |  |  | 181 to 352 | COc1ncc(NC(=O)c2ccc(N3CCOCC3)nc2)cc1S(=O)(=O)Nc1c(C)cccc1C [compound 2554]
52 |  |  | 181 to 352 | COc1ncc(NC(=O)c2cc(C(C)C)no2)cc1S(=O)(=O)Nc1c(C)cccc1C [compound 2555]
53 |  |  | 151 to 180 | COc1ccc(C(=O)Nc2cnc(OC)c(S(=O)(=O)Nc3c(C)cccc3C)c2)cn1 [compound 2556]
54 |  |  | 151 to 180 | COc1ncc(NC(=O)c2cnn3c2CCC3)cc1S(=O)(=O)Nc1c(C)cccc1C [compound 2557]
55 |  |  | 151 to 180 | COc1ncc(NC(=O)c2nc3ccccn3n2)cc1S(=O)(=O)Nc1c(C)cccc1C [compound 2558]
56 |  |  | 120 to 150 | COc1ncc(NC(=O)c2ccnn2C)cc1S(=O)(=O)Nc1c(C)cccc1C [compound 2559]
57 |  |  | 181 to 352 | COc1ncc(NC(=O)c2ccc(S(=O)(=O)NC(C)(C)C)cc2)cc1S(=O)(=O)Nc1c(C)cccc1C [compound 2561]
58 |  |  | 181 to 352 | COc1ncc(NC(=O)c2ccn(C3CC3)n2)cc1S(=O)(=O)Nc1c(C)cccc1C [compound 2562]
